These results are taken from US7744867B2, “PTPase inhibitors and method of using same” (The Cleveland Clinic Foundation, priority 2001, dated 2010).

Data set [1] has as its system C42 cells (Prostate cancer). Briefly: Growth inhibition of human tumor cell lines. Particulars: SS 12.5 μg/ml, IFNα 1,000 u/ml, alone or combined. It counts as cell-based.
For data set [2], the system named is RC45 cells (Renal cell carcinoma). Briefly: Growth inhibition of human tumor cell lines. It counts as cell-based. Particulars: SS 12.5 μg/ml, IFNα 1,000 u/ml, alone or combined.
The subject of data set [3] is WM9 cells. Briefly: Apoptotic cells by Annexin V/propidium iodide assay (fluorescent microscopy). As to conditions: 3 days, control 5%. It counts as cell-based, human. Here is the method:
Detection of apoptotic cells by Annexin V/propidium iodide assay. Annexin V staining of exposed membrane phospholipid phosphatidylserine (PS) was done using the Annexin V assay kit (Pharmingen, San Diego, Calif.). Briefly, U266 or WM9 cells were cultured in the 10% FCS RPMI 1640 medium in the absence or presence of sodium stibogluconate, IFNα, or both for 3 days. Cells were then washed in PBS twice and stained in binding buffer (10 mM Hepes, pH 7.4; 140 mM NaCl; 2.5 mM CaCl2) containing Annexin V-FITC and propidium iodide for 15 min. The reaction was stopped by adding 10 volumes of binding buffer and analyzed by FACS (Becton Dickinson Facsvantage) or fluorescent microscopy.

Data set [4] relates to prostate cancer. Particulars: cited from earlier work.
The conditions of data set [5]: cited from earlier work.
Data set [6] has as its system Baf3 cells. Nature of the data set: IL-3-induced proliferation of Baf3 cells. Format: cell-based, murine. Particulars: at 1,000 μg/ml. The procedure: The murine hematopoietic cell line Baf3 was maintained in RPMI 1640 medium supplemented with 10% fetal calf serum (FCS) and murine IL-3 (20 units/ml) as described previously. Human myeloid cell line TF-1 was maintained in RPMI 1640 supplemented with 10% FCS and 40 ng/ml of recombinant human GM-CSF as described previously. For cell proliferation assays, cells were washed in 10% FCS medium twice, resuspended in 10% FCS medium, incubated at 37° C. for 16 hours and then cultured at 37° C. in 10% FCS medium containing various amounts of cytokines, sodium stibogluconate, or PSbT for 3-6 days as indicated. The cell numbers in proliferation assays were determined by an MTT assay or by microscopic cell counting as indicated.

Data set [7] has as its system Jak2 and Stat5 tyrosine phosphorylation. Nature of the data set: IL-3-induced Jak2/Stat5 tyrosine phosphorylation in Baf3 cells. It counts as cell-based, murine. The procedure: For induction of cellular protein phosphorylation by sodium stibogluconate or pervanadate, Baf3 cells were incubated in 0.1% FCS RPMI 1640 medium at 37° C. for 16 hours. The cells were then washed twice in RPMI 1640 medium and incubated with sodium stibogluconate or pervanandate (0.1 mM) for various times prior to termination by lysing cells in cold lysis buffer (50 mM Tris, pH 7.4; 150 mM NaCl; 0.2 mM Na3VO4; 20 mm NaF; 1% NP40; 2 mM PMSF; 20 μg/ml of aprotinin and 1 mM of sodium molybdic acid). To determine the effect of sodium stibogluconate or potassium antimonyl tartrate on IL-3-induced Jak/Stat phosphorylation, Baf3 cells were deprived of the growth factor for 16 hours in 0.1% FCS RPMI 1640 medium and then incubated with or without sodium stibogluconate or potassium antimonyl tartrate for 10 minutes. IL-3 was next added to the cell suspension and incubated for various times. The cells were then harvested and lysed in cold lysis buffer at 4° C. for 45 minutes. Total cell lysates (TCL) were separated in SDS-PAGE gels, blotted onto nitrocellulose membrane (Schleicher & Schuell), probed with specific antibodies and detected using an enhanced chemiluminescence kit (ECL, Amersham).
A functional role of SHP-1 in dephosphorylating the Jak family kinases during cytokine signaling has been documented. To determine whether sodium stibogluconate inhibits SHP-1 in vivo, the effect of the drug on IL-3-induced Jak2 tyrosine phosphorylation in Baf3 cells was examined. Baf3 cells deprived of IL-3 were incubated with or without the drug for 10 minutes and then stimulated with IL-3 for various times. IL-3 induced tyrosine phosphorylation of Jak2 and Stat5 in Baf3 cells in the presence or absence of the drug. However, the phosphotyrosine levels of Jak2 and Stat5 in the presence of the drug were about twice of those in cells without drug treatment as determined by densitometry analysis.

Data set [8] deals with T1, intracellular MKP1 in WM9 cells (Homo sapiens, UniProt P28562).
T1 construct: endogenous in cells; host or cells: WM9 human melanoma cells
T1 sequence (P28562 whole entry): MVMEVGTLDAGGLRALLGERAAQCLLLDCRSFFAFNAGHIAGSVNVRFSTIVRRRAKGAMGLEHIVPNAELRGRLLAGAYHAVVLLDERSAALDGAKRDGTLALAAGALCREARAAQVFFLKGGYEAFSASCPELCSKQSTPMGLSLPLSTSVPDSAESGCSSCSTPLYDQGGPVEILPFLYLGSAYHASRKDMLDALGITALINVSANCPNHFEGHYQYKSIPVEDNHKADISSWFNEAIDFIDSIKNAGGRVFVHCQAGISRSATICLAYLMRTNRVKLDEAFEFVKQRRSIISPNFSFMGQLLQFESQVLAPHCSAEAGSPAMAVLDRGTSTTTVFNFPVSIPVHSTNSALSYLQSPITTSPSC
Nature of the data set: PTPase activity of anti-MKP1 immunocomplexes from WM9 cells. As to conditions: treated 5 minutes. It counts as cell-based. Here is the method: (§1) FIG. 6C. Sodium stibogluconate inactivates intracellular PRL-2 in WM9 human melanoma cells. A. Relative PTPase activities of anti-Flag immunocomplexes from WM9 cells transfected with the control vector (V) or Flag-PRL-2 expression construct and then treated with different amounts of sodium stibogluconate for 5 minutes B. Relative amounts of Flag-PRL-2 in the immunocomplexes as determined by SDS-PAGE/Western blotting. C. Relative PTPase activities of anti-MKP1 immunocomplexes from WM9 cells treated with different amounts of sodium stibogluconate for 5 minutes. Relative amounts of MKP1 in the immunocomplexes as determined by SDS-PAGE/Western blotting.
(§2) Flag-PRL-2 protein was detected in anti-Flag immunocomplexes from WM9 cells tranfected with an expression construct of Flag-PRL-2 but not in those from vector transfectants expected.

The target in data set [9] is T2, recombinant PRL-2 (Homo sapiens, UniProt Q12974).
T2 construct: made in house; host or cells: E. coli DH5α
T2 sequence (Q12974 1-167): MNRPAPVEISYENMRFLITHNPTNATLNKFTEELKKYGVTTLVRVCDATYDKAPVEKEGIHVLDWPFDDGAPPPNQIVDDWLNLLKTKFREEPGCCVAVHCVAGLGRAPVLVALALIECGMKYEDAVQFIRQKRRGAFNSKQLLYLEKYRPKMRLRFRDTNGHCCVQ
Briefly: In vitro PTPase assay with recombinant PRL. It counts as biochemical. As to conditions: washing process / stable complex. Here is the method:
In vitro PTPase activities were measured using the commercial protein tyrosine phosphatase assay kit (UBI) following established procedure. […] 100 μl of Malachite Green solution was added and incubated for 5 minutes, and the absorbance at 660 nm was measured after 5 minutes.
Recombinant GST fusion proteins of human PRL-1, 2 and 3 phosphatases were purified with glutathione beads from DH5α bacteria transformed by pGEX vectors containing cDNA fragments encoding the human PRLs which were generated by RT-PCR from H9 cells and confirmed by sequence analysis. Activities of the purified recombinant PRL proteins in dephosphorylating DiFMUP in the absence or presence of various inhibitors were measured following established procedure.
To assess whether sodium stibogluconate is an inhibitor of oncogenic PRL phosphatases, its effects on the PTPase activity of recombinant PRLs were evaluated by in vitro PTPase assays.

For data set [10], the target named is T3, intracellular Flag-PRL-2 in WM9 cells (Homo sapiens, UniProt Q12974).
T3 construct: expressed in transfected cells; host or cells: WM9 human melanoma cells
Briefly: PTPase activity of anti-Flag immunocomplexes from WM9 transfectants. Format: cell-based. Particulars: treated 5 minutes. The procedure: as §1, §2

For the molecule IFNα, the “% of growth inhibition by day 6 (±s.d.)” value in [1] is listed as “+19 (30) %”; in [2] it was 70 (15) %. For the same molecule, in data set [3], the “percentage of apoptotic cells” value was 15%. In data set [4], the “patients in whom the cytokine is effective” value is 5%.
With `O.O.O.O.O.O.O.O.O.O=C([O-])[C@@H]1[O][Sb]2([O-])([O][Sb]34([OH])[O][C@H]([C@H](O)CO)[C@H]([O]3)[C@H](C(=O)[O-])[O]4)[O][C@H]([C@H](O)CO)[C@@H]1[O]2.[Na+].[Na+].[Na+]` [sodium stibogluconate], in [5] (in 16 hours), the “blood levels, of peak value” was “around 1%”. In [5] (in the first 6 hours), the “excreted (renal clearance)” value is reported as “more than 80%”. Besides, the serum levels in data set [5] (standard dosage 10-20 mg/kg/day) was not below 10000 ng/mL. Also, in data set [6], the “IL-3-induced Baf3 growth” value is recorded as “suppressed”. The “phosphotyrosine levels of Jak2 and Stat5 relative to cells without drug treatment” value in [7] (IL-3 stimulated, drug 10 minutes before, densitometry) is reported as “about twice”. Also, the “Jak2/Stat5 tyrosine phosphorylation by the drug alone” value in data set [7] (without IL-3, 37° C. for 16 hours) is recorded as “failed to induce”. The “effect on MKP1 PTPase activity in WM9 cells” value in data set [8] is listed as “no marked effects”. Also, the “reversibility of PRL-2 inactivation” value in data set [9] is “irreversibly inhibits”. For the same molecule, the “PTPase activity of Flag-PRL-2 immunocomplexes from treated WM9 transfectants” value in data set [10] is given as “only low levels of PTPase activity”.
